Assay results published in patent US20240132464A1, “HETEROCYCLIC COMPOUNDS AS E3 LIGASE INHIBITORS” (Accutar Biotechnology Inc., priority 2022, published 2024).

Target: T1, GID4 (Uniprot ID: Q81VV7, residues 124-289) (Homo sapiens, UniProt Q8IVV7)
T1 construct: GID4 (Uniprot ID: Q81VV7, residues 124-289)
T1 sequence (Q8IVV7 124-289): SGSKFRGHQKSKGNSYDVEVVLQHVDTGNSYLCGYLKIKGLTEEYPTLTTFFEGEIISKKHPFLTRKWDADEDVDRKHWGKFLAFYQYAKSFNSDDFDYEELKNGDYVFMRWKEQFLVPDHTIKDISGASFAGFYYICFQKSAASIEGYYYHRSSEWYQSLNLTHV
Assay: GID4 competitive binding assay (AlphaScreen, GID4/degron peptide PGLW)
Conditions: 24 nM GID4, 48 nM biotinylated degron peptide PGLW, 4° C., read-out: IC50 (Inhibition of GID4/Degron binding by test compounds)
Procedure: GID4 Competitive Binding Assay
GID4 binding affinity of compounds disclosed herein was measured by monitoring the interaction of GID4 with its degron peptide (PGLW) in the presence of the test compounds. A truncated version of GID4 (Uniprot ID: Q81VV7, residues 124-289) with a 6*His at its C-terminus was used in this assay. Tetrapeptide, PGLW, was synthesized and tagged with an additional lysine labeled with biotin at its sidechain.
GID4 competitive binding assays were performed in a 384-well plate at 4° C. in a 20 μL reaction volume. Briefly, 24 nM GID4 (final concentration) proteins were pre-incubated with 48 nM biotinylated degron peptide (final concentration) in an assay buffer containing 20 mM HEPES, pH 7.5, 100 mM NaCl, 1 mM DTT, 0.1% Tween-20, and 0.05% BSA in the presence of the test compound in 2% DMSO (final concentration) at various concentrations for 2 h. 5 ug/ml Streptavidin ALphaScreen donor beads and 5 ug/ml nickel chelate (Ni-NTA) ALphaScreen acceptor beads (PerkinElmer, 6760619C) (final concentrations) were then added to the mixture. After an incubation of 1 h at 4° C., the fluorescent signals were obtained on the EnVision® 2105 Multilabel Plate Reader (PerkinElmer).
Raw ALphaScreen data were converted to a percentage of inhibition (relative to DMSO) using the following equations: […]
For a given test compound concentration X:
Signal (X)=Signal (GID4 & peptide & compound)−Signal (GID4 & buffer & compound)
Percentage of inhibition at concentration X=[1−Signal(X)/Signal (DMSO)]*100% b)
The IC50 values were determined by nonlinear regression of plots of [inhibitor] vs. percentage of inhibition with variable slope.
Table 3 summarizes the inhibition of binding between GID4 and degron peptide with compounds of the present disclosure. Compounds were ranked into bins as follows for IC50: A indicates <500 nM; B indicates 500 nM-5000 nM; C indicates >5000 nM.

| SMILES | IC50 [nM] |
| --- | --- |
| Nc1cc(N2CCOC(c3ccccc3C(F)(F)F)C2)nc(N)n1 (centres unmarked) [Compound 29, 6-(2-(2-(trifluoromethyl)phenyl)morpholino)pyrimidine-2,4-diamine] | < 500 |
| CC(C)c1cc(N2CCNC(c3cc(C(F)(F)F)ccc3Br)C2)nc(N)n1 (single isomer, unassigned) [Compound 13, (R/S)-4-(3-(2-bromo-5-(trifluoromethyl)phenyl)piperazin-1-yl)-6-isopropylpyrimidin-2-amine] | < 500 |
| CC(C)c1cc(N2CCNC(c3cc(N4CC(CO)C4)ccc3Br)C2)nc(N)n1 (single isomer, unassigned) [Compound 30, (R/S)-(1-(3-(4-(2-amino-6-isopropylpyrimidin-4-yl)piperazin-2-yl)-4-bromophenyl)azetidin-3-yl)methanol] | < 500 |
| CC(=O)N1CCN(c2cc(N)nc(N)n2)C[C@@H]1c1ccccc1Br (stereo in doubt) [Compound 59, (S/R)-1-(2-(2-bromophenyl)-4-(2,6-diaminopyrimidin-4-yl)piperazin-1-yl)ethan-1-one] | > 5000 |
| CC(C)c1cc(N2CCNC(c3cccc(F)c3Br)C2)nc(N)n1 (centres unmarked) [Compound 169, 4-(3-(2-bromo-3-fluorophenyl)piperazin-1-yl)-6-isopropylpyrimidin-2-amine] | < 500 |
| CC(C)c1cc(N2CCOC(c3ccccc3Br)C2)nc(N)n1 (racemic) [Compound 158, (R/S)-4-(2-(2-bromophenyl)morpholino)-6-isopropylpyrimidin-2-amine] | > 5000 |
| CNc1cc(N2CCCC(c3csc4ccccc34)C2)nc(N)n1 (centres unmarked) [Compound 82, 6-(3-(benzo[b]thiophen-3-yl)piperidin-1-yl)-N4-methylpyrimidine-2,4-diamine] | 500 to 5000 |
| CC(C)c1cc(N2CCN(C)[C@@H](c3ccccc3Br)C2)nc(N)n1 (racemic) [Compound 161, (S/R)-4-(3-(2-bromophenyl)-4-methylpiperazin-1-yl)-6-isopropylpyrimidin-2-amine] | 500 to 5000 |

More lines, now with the values ahead:

| IC50 [nM] | SMILES |
| --- | --- |
| 500 to 5000 | CN1CCC(NC(=O)c2cccc(-c3ccc4ccnc(N)c4c3)c2)CC1 [Compound 345, 3-(1-aminoisoquinolin-7-yl)-N-(1-methylpiperidin-4-yl)benzamide] |
| 500 to 5000 | Cc1cc(C(=O)NCCCN(C)C)ccc1-c1cc(O)c2ncccc2c1 [Compound 320, N-(3-(dimethylamino)propyl)-4-(8-hydroxyquinolin-6-yl)-3-methylbenzamide] |
| 500 to 5000 | CN(C)CCNC(=O)c1csc2ccc(-c3ccc4ccnc(N)c4c3)cc12 [Compound 355, 5-(1-aminoisoquinolin-7-yl)-N-(2-(dimethylamino)ethyl)benzo[b]thiophene-3-carboxamide] |
| > 5000 | CC(C)c1cc(N2CCCCC(O)(c3ccccc3Br)C2)nc(N)n1 (centres unmarked) [Compound 226, 1-(2-amino-6-isopropylpyrimidin-4-yl)-3-(2-bromophenyl)azepan-3-ol] |
| > 5000 | Cc1ccccc1C1CN(c2cc(C(C)C)nc(N)n2)CCN1 (centres unmarked) [Compound 177, 4-isopropyl-6-(3-(o-tolyl)piperazin-1-yl)pyrimidin-2-amine] |
| < 500 | CC(C)c1nc(N2CCNC(c3cnc4ccccn34)C2)c2nc[nH]c2n1 (centres unmarked) [Compound 373, 6-(3-(imidazo[1,2-a]pyridin-3-yl)piperazin-1-yl)-2-isopropyl-9H-purine] |
| > 5000 | CC(C)c1cc(N2CCNC(c3nnc[nH]3)C2)nc(N)n1 (centres unmarked) [Compound 204, 4-(3-(4H-1,2,4-triazol-3-yl)piperazin-1-yl)-6-isopropylpyrimidin-2-amine] |
| > 5000 | CC(C)c1cc(Nc2cccc(-c3cnccn3)c2)nc(N)n1 [Compound 198, 6-isopropyl-N4-(3-(pyrazin-2-yl)phenyl)pyrimidine-2,4-diamine] |
| < 500 | Nc1nccc2ccc(-c3ccc4[nH]nc(C(=O)NCCO)c4c3)cc12 [Compound 331, 5-(1-aminoisoquinolin-7-yl)-N-(2-hydroxyethyl)-1H-indazole-3-carboxamide] |
